Results taken from US20120029187A1, “HALOALKYLSULFONANILIDE DERIVATIVE” (Nissan Chemical Industries, Ltd., priority 2009, published 2012).

What was measured:
Type in all cases: in vivo
barnyardgrass [1] = test: Test Example 1: herbicidal effects in preemergence treatment under submerged conditions; conditions: dose 2.52 g/a
Source text: (§1) Test on the Herbicidal Effects in Preemergence Treatment on Weeds Under Submerged Conditions
(§2) Alluvial soil was put in 1/30000-are styrol cups and admixed with water so that it was submerged at a depth of 4 cm. In each cup, seeds of barnyardgrass, bulrush and ducksalad were sown together, and rice seedlings at the 2.5-leaf stage were transplanted. On the same day as the seeding, emulsifiable concentrates containing compounds of the present invention formulated in accordance with Formulation Example 2 were applied to the water surfaces at predetermined doses after diluted with water. The cups were placed in a greenhouse at 25 to 30° C. to grow the plants. Three weeks after the application, the herbicidal effects against various plants were determined on the following evaluation scale.
(§3) 5 mortality of 90% or above (nearly complete death)
(§4) 4 mortality of at least 70% and less than 90%
(§5) 3 mortality of at least 40% and less than 70%
(§6) 2 mortality of at least 20% and less than 40%
(§7) 1 mortality of at least 5% and less than 20%
(§8) 0 mortality of less than 5% (almost ineffective)
(§9) A: barnyardgrass, B: bulrush, C: ducksalad, D: large crabgrass, E: giant foxtail, F: wild oat, G: water foxtail, H: Italian ryegrass, I: velvetleaf, J: common ragweed, K: redroot pigweed, L: common lambsquater, M: posumbu knotweed, N: common chickweed, O: beadstraw, a: transplanted rice, b: corn, c: soybean, d: direct-seeded rice, e: wheat, f: sugar beet.
(§10) The doses (g/a) represents the amounts in g per 1 are (a) applied after adjustment of concentration adjustment.

bulrush [2] = test: as above; conditions: dose 2.52 g/a
Source text: as §1, §2, §3, §4, §5, §6, §7, §8, §9, §10

ducksalad [3] = test: as above; conditions: dose 2.52 g/a
Source text: as §1, §2, §3, §4, §5, §6, §7, §8, §9, §10

transplanted rice = test: Test Example 1: preemergence treatment under submerged conditions, effect on crop; conditions: dose 2.52 g/a
Source text: as §1, §2, §3, §4, §5, §6, §7, §8, §9, §10

barnyardgrass [4] = test: Test Example 2: herbicidal effects during the vegetation period under submerged conditions; conditions: treatment during the vegetation period under submerged conditions; dose 2.52 g/a
Procedure: (§11) Test on the Herbicidal Effects on Weeds During the Vegetation Period Under Submerged Conditions
(§12) Alluvial soil was put in 1/30000-are styrol cups and admixed with water so that it was submerged at a depth of 4 cm. In each cup, seeds of barnyardgrass, bulrush and ducksalad were sown together, and the cups were placed in a greenhouse at 25 to 30° C. to grow the plants. When the barnyardgrass, bulrush and ducksalad reached the 1- or 2-leaf stage, emulsifiable concentrates containing compounds of the present invention formulated in accordance with Formulation Example 2 were applied to the water surfaces at predetermined doses after diluted with water. Three weeks after the application, the herbicidal effects against various plants were determined on the same evaluation scale as in Test Example 1.
as §9, §10

bulrush [5] = test: as above; conditions: treatment during the vegetation period under submerged conditions; dose 2.52 g/a
Procedure: as §11, §12, §9, §10

ducksalad [6] = test: as above; conditions: treatment during the vegetation period under submerged conditions; dose 2.52 g/a
Procedure: as §11, §12, §9, §10

Italian ryegrass [7] = test: Test Example 3: herbicidal effects in soil treatment; conditions: dose 3.2 g/a
Source text: (§13) Test on the Herbicidal Effects in Soil Treatment
(§14) Sterilized diluvial soil was put in plastic boxes with a length of 21 cm, a width of 13 cm and a depth of 7 cm, and seeds of barnyardgrass, large crabgrass, giant foxtail, wild oat, blackgrass, velvetleaf, common ragweed, redroot pigweed, common lambsquater, posumbu knotweed, common chickweed corn, soybean, rice, wheat and sugar beet were sown in spots and covered with an about 1.5 cm-thick soil layer. Emulsifiable concentrates containing compounds of the present invention formulated in accordance with Formulation Example 2 were uniformly applied to the soil surfaces at predetermined doses through a small sprayer after dilute with water. Three weeks after the application, the herbicidal effects against various plants were determined on the same evaluation scale as in Test Example 1.
as §9, §10

barnyardgrass [8] = test: as above; conditions: dose 3.2 g/a
Source text: as §13, §14, §9, §10

common chickweed [9] = test: as above; conditions: dose 3.2 g/a
Source text: as §13, §14, §9, §10

common lambsquater [10] = test: as above; conditions: dose 3.2 g/a
Source text: as §13, §14, §9, §10

common ragweed [11] = test: as above; conditions: dose 3.2 g/a
Source text: as §13, §14, §9, §10

giant foxtail [12] = test: as above; conditions: dose 3.2 g/a
Source text: as §13, §14, §9, §10

large crabgrass [13] = test: as above; conditions: dose 3.2 g/a
Source text: as §13, §14, §9, §10

posumbu knotweed [14] = test: as above; conditions: dose 3.2 g/a
Source text: as §13, §14, §9, §10

redroot pigweed [15] = test: as above; conditions: dose 3.2 g/a
Source text: as §13, §14, §9, §10

water foxtail [16] = test: as above; conditions: dose 3.2 g/a
Source text: as §13, §14, §9, §10

Italian ryegrass [17] = test: Test Example 4: herbicidal effect in foliage treatment; conditions: dose 3.2 g/a, three weeks after the application
Source text: (§15) Test on the Herbicidal Effect in Foliage Treatment
as §14, with “chickweed,” for “chickweed”, “The boxes were placed in a greenhouse at 25 to 30° C. to grow the plants. After 14 days, emulsifiable” for “Emulsifiable”, “foliage” for “soil surfaces”, “diluted” for “dilute”
as §9, §10

barnyardgrass [18] = test: as above; conditions: dose 3.2 g/a, three weeks after the application
Source text: as §15
as §14, with “chickweed,” for “chickweed”, “The boxes were placed in a greenhouse at 25 to 30° C. to grow the plants. After 14 days, emulsifiable” for “Emulsifiable”, “foliage” for “soil surfaces”, “diluted” for “dilute”
as §9, §10

beadstraw = test: as above; conditions: dose 3.2 g/a, three weeks after the application
Source text: as §15
as §14, with “chickweed,” for “chickweed”, “The boxes were placed in a greenhouse at 25 to 30° C. to grow the plants. After 14 days, emulsifiable” for “Emulsifiable”, “foliage” for “soil surfaces”, “diluted” for “dilute”
as §9, §10

common chickweed [19] = test: as above; conditions: dose 3.2 g/a, three weeks after the application
Source text: as §15
as §14, with “chickweed,” for “chickweed”, “The boxes were placed in a greenhouse at 25 to 30° C. to grow the plants. After 14 days, emulsifiable” for “Emulsifiable”, “foliage” for “soil surfaces”, “diluted” for “dilute”
as §9, §10

common lambsquater [20] = test: as above; conditions: dose 3.2 g/a, three weeks after the application
Source text: as §15
as §14, with “chickweed,” for “chickweed”, “The boxes were placed in a greenhouse at 25 to 30° C. to grow the plants. After 14 days, emulsifiable” for “Emulsifiable”, “foliage” for “soil surfaces”, “diluted” for “dilute”
as §9, §10

common ragweed [21] = test: as above; conditions: dose 3.2 g/a, three weeks after the application
Source text: as §15
as §14, with “chickweed,” for “chickweed”, “The boxes were placed in a greenhouse at 25 to 30° C. to grow the plants. After 14 days, emulsifiable” for “Emulsifiable”, “foliage” for “soil surfaces”, “diluted” for “dilute”
as §9, §10

giant foxtail [22] = test: as above; conditions: dose 3.2 g/a, three weeks after the application
Source text: as §15
as §14, with “chickweed,” for “chickweed”, “The boxes were placed in a greenhouse at 25 to 30° C. to grow the plants. After 14 days, emulsifiable” for “Emulsifiable”, “foliage” for “soil surfaces”, “diluted” for “dilute”
as §9, §10

large crabgrass [23] = test: as above; conditions: dose 3.2 g/a, three weeks after the application
Source text: as §15
as §14, with “chickweed,” for “chickweed”, “The boxes were placed in a greenhouse at 25 to 30° C. to grow the plants. After 14 days, emulsifiable” for “Emulsifiable”, “foliage” for “soil surfaces”, “diluted” for “dilute”
as §9, §10

posumbu knotweed [24] = test: as above; conditions: dose 3.2 g/a, three weeks after the application
Source text: as §15
as §14, with “chickweed,” for “chickweed”, “The boxes were placed in a greenhouse at 25 to 30° C. to grow the plants. After 14 days, emulsifiable” for “Emulsifiable”, “foliage” for “soil surfaces”, “diluted” for “dilute”
as §9, §10

redroot pigweed [25] = test: as above; conditions: dose 3.2 g/a, three weeks after the application
Source text: as §15
as §14, with “chickweed,” for “chickweed”, “The boxes were placed in a greenhouse at 25 to 30° C. to grow the plants. After 14 days, emulsifiable” for “Emulsifiable”, “foliage” for “soil surfaces”, “diluted” for “dilute”
as §9, §10

velvetleaf = test: as above; conditions: dose 3.2 g/a, three weeks after the application
Source text: as §15
as §14, with “chickweed,” for “chickweed”, “The boxes were placed in a greenhouse at 25 to 30° C. to grow the plants. After 14 days, emulsifiable” for “Emulsifiable”, “foliage” for “soil surfaces”, “diluted” for “dilute”
as §9, §10

water foxtail [26] = test: as above; conditions: dose 3.2 g/a, three weeks after the application
Source text: as §15
as §14, with “chickweed,” for “chickweed”, “The boxes were placed in a greenhouse at 25 to 30° C. to grow the plants. After 14 days, emulsifiable” for “Emulsifiable”, “foliage” for “soil surfaces”, “diluted” for “dilute”
as §9, §10

Row | SMILES | A: barnyardgrass, herbicidal effect (evaluation scale 0-5) (barnyardgrass [1]) | B: bulrush, herbicidal effect (evaluation scale 0-5) (bulrush [2]) | C: ducksalad, herbicidal effect (evaluation scale 0-5) (ducksalad [3]) | a: transplanted rice, effect on crop (evaluation scale 0-5) (transplanted rice) | A: barnyardgrass, herbicidal effect (evaluation scale 0-5) (barnyardgrass [4]) | B: bulrush, herbicidal effect (evaluation scale 0-5) (bulrush [5]) | C: ducksalad, herbicidal effect (evaluation scale 0-5) (ducksalad [6]) | herbicidal effect, H: Italian ryegrass (Italian ryegrass [7]) | herbicidal effect, A: barnyardgrass (barnyardgrass [8]) | herbicidal effect, N: common chickweed (common chickweed [9]) | herbicidal effect, L: common lambsquater (common lambsquater [10]) | herbicidal effect, J: common ragweed (common ragweed [11]) | herbicidal effect, E: giant foxtail (giant foxtail [12]) | herbicidal effect, D: large crabgrass (large crabgrass [13]) | herbicidal effect, M: posumbu knotweed (posumbu knotweed [14]) | herbicidal effect, K: redroot pigweed (redroot pigweed [15]) | herbicidal effect, G: water foxtail (water foxtail [16]) | H: Italian ryegrass, herbicidal effect (Italian ryegrass [17]) | A: barnyardgrass, herbicidal effect (barnyardgrass [18]) | O: beadstraw, herbicidal effect (beadstraw) | also measured
1 | CCOC(=O)N(c1ccccc1CN1OCC(C(F)(F)F)OC1=O)S(=O)(=O)C(F)(F)F (stereo not shown) [III-9] | 4 (mortality of at least 70% and less than 90%) | 5 (mortality of 90% or above (nearly complete death)) | 0 (mortality of less than 5% (almost ineffective)) | 0 (mortality of less than 5% (almost ineffective)) | 4 (mortality of at least 70% and less than 90%) | 5 (mortality of 90% or above (nearly complete death)) | 4 (mortality of at least 70% and less than 90%) | 0 (mortality of less than 5% (almost ineffective)) | 2 (mortality of at least 20% and less than 40%) | 1 (mortality of at least 5% and less than 20%) | 3 (mortality of at least 40% and less than 70%) | 0 (mortality of less than 5% (almost ineffective)) | 2 (mortality of at least 20% and less than 40%) | 0 (mortality of less than 5% (almost ineffective)) | 1 (mortality of at least 5% and less than 20%) | 0 (mortality of less than 5% (almost ineffective)) | 5 (mortality of 90% or above (nearly complete death)) | 0 (mortality of less than 5% (almost ineffective)) | 0 (mortality of less than 5% (almost ineffective)) | 3 (mortality of at least 40% and less than 70%) | N: common chickweed, herbicidal effect (common chickweed [19]): 3 (mortality of at least 40% and less than 70%); L: common lambsquater, herbicidal effect (common lambsquater [20]): 2 (mortality of at least 20% and less than 40%); J: common ragweed, herbicidal effect (common ragweed [21]): 0 (mortality of less than 5% (almost ineffective)); E: giant foxtail, herbicidal effect (giant foxtail [22]): 0 (mortality of less than 5% (almost ineffective)); D: large crabgrass, herbicidal effect (large crabgrass [23]): 0 (mortality of less than 5% (almost ineffective)); M: posumbu knotweed, herbicidal effect (posumbu knotweed [24]): 2 (mortality of at least 20% and less than 40%); K: redroot pigweed, herbicidal effect (redroot pigweed [25]): 0 (mortality of less than 5% (almost ineffective)); I: velvetleaf, herbicidal effect (velvetleaf): 3 (mortality of at least 40% and less than 70%); G: water foxtail, herbicidal effect (water foxtail [26]): 5 (mortality of 90% or above (nearly complete death))
2 | CC1(C)CON(Cc2ccccc2NS(=O)(=O)C(F)(F)F)C(=O)O1 [III-10] | 5 (mortality of 90% or above (nearly complete death)) | 5 (mortality of 90% or above (nearly complete death)) | 5 (mortality of 90% or above (nearly complete death)) | 0 (mortality of less than 5% (almost ineffective)) | 5 (mortality of 90% or above (nearly complete death)) | 5 (mortality of 90% or above (nearly complete death)) | 5 (mortality of 90% or above (nearly complete death)) | 4 (mortality of at least 70% and less than 90%) | 5 (mortality of 90% or above (nearly complete death)) | 4 (mortality of at least 70% and less than 90%) | 4 (mortality of at least 70% and less than 90%) | 5 (mortality of 90% or above (nearly complete death)) | 4 (mortality of at least 70% and less than 90%) | 5 (mortality of 90% or above (nearly complete death)) | 5 (mortality of 90% or above (nearly complete death)) | 2 (mortality of at least 20% and less than 40%) | 5 (mortality of 90% or above (nearly complete death)) | 4 (mortality of at least 70% and less than 90%) | 5 (mortality of 90% or above (nearly complete death)) | 5 (mortality of 90% or above (nearly complete death)) | N: common chickweed, herbicidal effect (common chickweed [19]): 1 (mortality of at least 5% and less than 20%); L: common lambsquater, herbicidal effect (common lambsquater [20]): 4 (mortality of at least 70% and less than 90%); J: common ragweed, herbicidal effect (common ragweed [21]): 5 (mortality of 90% or above (nearly complete death)); E: giant foxtail, herbicidal effect (giant foxtail [22]): 1 (mortality of at least 5% and less than 20%); D: large crabgrass, herbicidal effect (large crabgrass [23]): 4 (mortality of at least 70% and less than 90%); M: posumbu knotweed, herbicidal effect (posumbu knotweed [24]): 5 (mortality of 90% or above (nearly complete death)); K: redroot pigweed, herbicidal effect (redroot pigweed [25]): 4 (mortality of at least 70% and less than 90%); I: velvetleaf, herbicidal effect (velvetleaf): 3 (mortality of at least 40% and less than 70%); G: water foxtail, herbicidal effect (water foxtail [26]): 5 (mortality of 90% or above (nearly complete death))
